Results as given in ChEMBL document CHEMBL1123013, “Synthesis and neuroleptic activity of 3-(1-substituted-4-piperidinyl)-1,2-benzisoxazoles” (J Med Chem, 1985).

test system: Dopamine receptor; assay: Ability to inhibit the binding of [3H]spiroperidol in rat striatal tissue; ND=assay not performed due to solubility problems.; assay type: tissue-based, Striatum; conditions: not given

| IC50 | Compound |
| --- | --- |
| Insoluble | Oc1nc2ccccc2n1CCCN1CCC(c2noc3ccccc23)CC1 |

organism: Mus musculus; assay: animal or person; conditions: ip
Description: Neuroleptic activity in vivo by ability to antagonise climbing in apomorphine dosed mice after intraperitoneal administration.

| Compound | ED50 [mg/kg] |
| --- | --- |
| COc1ccc2c(C3CCN(CCCn4c(O)nc5ccccc54)CC3)noc2c1 | > 10 |
| Fc1ccc(C(CCCN2CCC(c3noc4ccccc34)CC2)c2ccc(F)cc2)cc1 | 1.6 |
| Oc1ccc2onc(C3CCN(CCCC(c4ccc(F)cc4)c4ccc(F)cc4)CC3)c2c1 | > 10 |
| COc1cc2onc(C3CCN(CCCn4c(O)nc5ccccc54)CC3)c2cc1OC | > 10 |
| Oc1nc2ccccc2n1CCCN1CCC(c2noc3cc(F)ccc23)CC1 | 0.09 |
| Fc1ccc(C(CCCN2CCC(c3noc4ccc(F)cc34)CC2)c2ccc(F)cc2)cc1 | 1.6 |
| COc1cc2onc(C3CCN(CCCc4c(C)[nH]c5ccccc45)CC3)c2cc1OC | > 10 |
| Cc1[nH]c2ccccc2c1CCCN1CCC(c2noc3ccc(O)cc23)CC1 | > 10 |
| Oc1nc2ccccc2n1CCCN1CCC(c2noc3cc(Cl)ccc23)CC1 | 0.8 |
| Cc1[nH]c2ccccc2c1CCCN1CCC(c2noc3cc(Cl)ccc23)CC1 | 4.1 |
| Cc1[nH]c2ccccc2c1CCCN1CCC(c2noc3ccccc23)CC1 | 1.1 |
| COc1cc2onc(C3CCN(CCCc4noc5cc(F)ccc45)CC3)c2cc1OC | > 10 |
| Oc1nc2ccccc2n1CCCN1CCC(c2noc3cccc(F)c23)CC1 | 5.3 |
| Fc1ccc2c(CCCN3CCC(c4noc5ccccc45)CC3)noc2c1 | 1.4 |
| Cc1[nH]c2ccccc2c1CCCN1CCC(c2noc3ccc(F)cc23)CC1 | > 10 |
| COc1ccc2onc(C3CCN(CCCc4c(C)[nH]c5ccccc45)CC3)c2c1 | > 10 |
| Fc1ccc2c(CCCN3CCC(c4noc5cc(F)ccc45)CC3)noc2c1 | 0.08 |
| O=C(c1ccccc1)C1CCNCC1 | 1.3 |
| Oc1nc2ccccc2n1CCCN1CCC(c2noc3ccc(F)cc23)CC1 | > 10 |
| Fc1ccc2c(CCCN3CCC(c4noc5cc(Cl)ccc45)CC3)noc2c1 | 2 |
| COc1ccc2onc(C3CCN(CCCC(c4ccc(F)cc4)c4ccc(F)cc4)CC3)c2c1 | > 10 |
| COc1ccc2onc(C3CCN(CCCc4noc5cc(F)ccc45)CC3)c2c1 | 7.2 |
| COc1cc2onc(C3CCN(CCCC(c4ccc(F)cc4)c4ccc(F)cc4)CC3)c2cc1OC | > 10 |
